# Like-named read-outs stand apart in the source and are kept apart here.
# Assays:
# Experiment in all cases: Ras GTP binding domain inhibition assay (labeled GTP)
# [1] = molecular target: KRas G12D/Q61H double mutant (Homo sapiens (Human), UniProt P01116, G12D/Q61H); conditions: for IC50: serial dilution, read-out: KRas G12D Q61H (classes E-H, IC50)
# Outline: (§1)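 Labelled-GTP binding: plate-captured His-KRas protein was pre-exposed to compound for 3 h at room temperature (single 20 μM point or dilution series, 1% DMSO, Tris pH 7.5/MgCl2/DTT buffer). Cy3- or Cy5-GTP was then added for 45 min. Washed wells were read for retained fluorescence to give inhibition or IC50.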
# KRas wild type = KRas wild type (Homo sapiens (Human), UniProt P01116)
# Chain of KRas wild type (P01116-2 other isoform, or with tags, fused parts or gaps): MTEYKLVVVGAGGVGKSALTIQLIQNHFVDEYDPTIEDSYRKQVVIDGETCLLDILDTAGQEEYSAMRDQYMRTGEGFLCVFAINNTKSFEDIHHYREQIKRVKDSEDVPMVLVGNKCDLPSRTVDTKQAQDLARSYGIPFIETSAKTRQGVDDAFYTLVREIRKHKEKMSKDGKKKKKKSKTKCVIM
# Outline: as §1
# KRas Q61H mutant = KRas Q61H mutant (Homo sapiens (Human), UniProt P01116, Q61H); conditions: 20 μM compound
# Chain of KRas Q61H mutant (P01116-2 other isoform, or with tags, fused parts or gaps Q61H): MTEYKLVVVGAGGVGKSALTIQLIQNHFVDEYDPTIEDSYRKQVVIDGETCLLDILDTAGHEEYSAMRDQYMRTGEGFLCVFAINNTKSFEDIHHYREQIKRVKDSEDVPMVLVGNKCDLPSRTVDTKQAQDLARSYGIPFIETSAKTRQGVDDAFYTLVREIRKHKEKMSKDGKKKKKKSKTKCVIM
# Outline: as §1
# KRas G12C mutant = KRas G12C mutant (Homo sapiens (Human), UniProt P01116, G12C)
# Chain of KRas G12C mutant (P01116-2 other isoform, or with tags, fused parts or gaps G12C): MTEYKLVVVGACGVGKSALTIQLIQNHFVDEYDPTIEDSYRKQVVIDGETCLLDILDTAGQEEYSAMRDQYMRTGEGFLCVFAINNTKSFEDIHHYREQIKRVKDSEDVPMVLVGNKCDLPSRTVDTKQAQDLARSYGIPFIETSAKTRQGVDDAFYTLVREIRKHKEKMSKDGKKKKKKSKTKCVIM
# Outline: as §1
# [2] = molecular target: KRas G12C/Q61H double mutant (Homo sapiens (Human), UniProt P01116, G12C/Q61H); conditions: 20 μM compound
# Chain of KRas G12C/Q61H double mutant (P01116-2 other isoform, or with tags, fused parts or gaps G12C/Q61H): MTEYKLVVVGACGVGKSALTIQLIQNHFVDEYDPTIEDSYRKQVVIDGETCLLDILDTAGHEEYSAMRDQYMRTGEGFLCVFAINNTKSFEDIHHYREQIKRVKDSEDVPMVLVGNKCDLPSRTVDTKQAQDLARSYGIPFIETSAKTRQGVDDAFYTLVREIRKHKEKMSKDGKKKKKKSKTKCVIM
# Outline: as §1
# KRas G12D mutant protein = KRas G12D mutant protein (Homo sapiens (Human), UniProt P01116, G12D)
# Chain of KRas G12D mutant protein (P01116-2 other isoform, or with tags, fused parts or gaps G12D): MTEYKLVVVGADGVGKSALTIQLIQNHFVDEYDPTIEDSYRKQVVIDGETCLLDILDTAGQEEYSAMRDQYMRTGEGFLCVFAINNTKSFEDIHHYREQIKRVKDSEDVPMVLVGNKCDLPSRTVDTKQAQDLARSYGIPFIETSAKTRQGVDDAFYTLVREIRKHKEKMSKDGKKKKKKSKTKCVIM
# [3] = 20 μM compound, KRas G12D/Q61H double mutant, read-out: % Inhibition at 20 μM of K-Ras mutant and wild-type protein, KRas G12D Q61H
# [4] = 20 μM compound, KRas wild type, read-out: % Inhibition at 20 μM of K-Ras mutant and wild-type protein, KRas wild type
# [5] = KRas Q61H, read-out: % Inhibition at 20 μM of K-Ras mutant and wild-type protein, KRas Q61H
# [6] = 20 μM compound, KRas G12C, read-out: % Inhibition at 20 μM of K-Ras mutant and wild-type protein, KRas G12C
# [7] = KRas G12C/Q61H double mutant, read-out: % Inhibition at 20 μM of K-Ras mutant and wild-type protein, KRas G12C Q61H
# [8] = 20 μM compound, KRas G12D, read-out: % Inhibition at 20 μM of K-Ras mutant and wild-type protein, KRas G12D
# [9] = 20 μM compound, read-out: % Inhibition at 20 μM KRas G12D Q61H
# [10] = 20 μM compound, read-out: % Inhibition at 20 μM KRas wild type
# [11] = read-out: % Inhibition at 20 μM KRas Q61H
# [12] = 20 μM compound, read-out: % Inhibition at 20 μM KRas G12C
# [13] = read-out: % Inhibition at 20 μM KRas G12C Q61H
# [14] = 20 μM compound, read-out: % Inhibition at 20 μM KRas G12D
# Chain of KRas G12D/Q61H double mutant (P01116-2 other isoform, or with tags, fused parts or gaps G12D/Q61H): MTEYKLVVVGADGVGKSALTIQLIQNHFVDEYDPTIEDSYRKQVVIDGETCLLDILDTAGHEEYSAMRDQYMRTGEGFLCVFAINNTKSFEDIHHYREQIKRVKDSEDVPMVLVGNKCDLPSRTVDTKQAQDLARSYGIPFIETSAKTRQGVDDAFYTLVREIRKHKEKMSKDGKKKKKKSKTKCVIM
Structure (SMILES),"inhibition at 20 µM [1, 3] [%]",inhibition at 20 µM (KRas wild type; [4]) [%],inhibition at 20 µM (KRas Q61H mutant; [5]) [%],inhibition at 20 µM (KRas G12C mutant; [6]) [%],"inhibition at 20 µM [2, 7] [%]",inhibition at 20 µM (KRas G12D mutant protein; [8]) [%],"inhibition at 20 µM [1, 9] [%]",inhibition at 20 µM (KRas wild type; [10]) [%],inhibition at 20 µM (KRas Q61H mutant; [11]) [%],inhibition at 20 µM (KRas G12C mutant; [12]) [%],"inhibition at 20 µM [2, 13] [%]",inhibition at 20 µM (KRas G12D mutant protein; [14]) [%],further results
Nc1cccc(-c2csc3c(O)nc(-c4ccccn4)nc23)n1 [drawing 3514],51 to 75,51 to 75,76 to 100,25 to 50,51 to 75,51 to 75,,,,,,,
Oc1nc(-c2ccccn2)nc2c(-c3ccc4c(c3)CCCO4)csc12 [drawing 2902],,,,,,,25 to 50,25 to 50,51 to 75,25 to 50,25 to 50,51 to 75,
CNC(=O)c1ccc(-c2csc3c(O)nc(-c4ccccn4)nc23)cc1C [drawing 2885],,,,,,,25 to 50,25 to 50,25 to 50,25 to 50,25 to 50,25 to 50,
Cc1cnc(-c2ccccn2)nc1NC(=O)Cc1ccc2cnccc2c1 [drawing 2856],,,,,,,51 to 75,51 to 75,51 to 75,25 to 50,51 to 75,51 to 75,
OCC1(c2ccc(-c3nc(-c4ccccn4)nc(O)c3Oc3ccccc3)cc2)CC1 [drawing 3534],51 to 75,1 to 25,76 to 100,51 to 75,76 to 100,25 to 50,,,,,,,
O=C(c1csc2c(O)nc(-c3ccccn3)nc12)N1CCNC(c2ccc(O)cc2)C1 (stereo not drawn) [drawing 2808],,,,,,,76 to 100,76 to 100,76 to 100,51 to 75,76 to 100,51 to 75,IC50 [1]: 5 to 10 µM
Oc1nc(-c2ccccn2)nc2sc3c(c12)CCNC3 [drawing 2851],,,,,,,51 to 75,51 to 75,51 to 75,25 to 50,51 to 75,76 to 100,
O=C(CCc1cncnc1)Nc1nc(-c2ccccn2)nc2sccc12 [drawing 2891],,,,,,,51 to 75,51 to 75,51 to 75,25 to 50,76 to 100,51 to 75,
COc1c(O)nc(-c2ccccn2)nc1Oc1cccc(C(F)(F)F)c1 [drawing 3557],51 to 75,25 to 50,51 to 75,25 to 50,76 to 100,76 to 100,,,,,,,
Oc1nc(-c2ccccn2)nc2sccc12 [drawing 2704],,,,,,,51 to 75,25 to 50,51 to 75,25 to 50,51 to 75,25 to 50,IC50 [1]: 11 to 30 µM
Oc1nc(-c2ccccn2)nc2c(CC3CCNC3)csc12 (stereo not drawn) [drawing 3526],51 to 75,25 to 50,51 to 75,51 to 75,51 to 75,51 to 75,,,,,,,
Cc1c(C(=O)O)sc2c(O)nc(-c3ccccn3)nc12 [drawing 3475],51 to 75,1 to 25,51 to 75,1 to 25,51 to 75,25 to 50,,,,,,,
COc1ccc(-c2csc3c(O)nc(-c4ccccn4)nc23)c(C)c1 [drawing 2881],,,,,,,51 to 75,25 to 50,51 to 75,51 to 75,51 to 75,51 to 75,
Oc1nc(-c2ccccn2)nc(Oc2cccc(C(F)(F)F)c2)c1O [drawing 3558],51 to 75,1 to 25,51 to 75,51 to 75,76 to 100,51 to 75,,,,,,,
COc1ccc(COC[C@H]2O[C@@H](c3csc4c(=O)[nH]c(-c5ccccn5)nc34)[C@H](O)[C@@H]2O)cc1 [drawing 3533],25 to 50,1 to 25,51 to 75,25 to 50,51 to 75,25 to 50,,,,,,,
Oc1nc(-c2ccccn2)nc2c1c(-c1ccccc1)nn2-c1ccccn1 [drawing 3539],51 to 75,25 to 50,51 to 75,51 to 75,51 to 75,51 to 75,,,,,,,
COCCNc1nc(-c2nccn2C)nc2sc(-c3ccccc3)c(-c3ccccc3)c12 [drawing 3535],51 to 75,1 to 25,,51 to 75,,76 to 100,,,,,,,
O=C(NCCc1cccnc1)c1csc2c(O)nc(-c3ccccn3)nc12 [drawing 2689],,,,,,,51 to 75,76 to 100,,25 to 50,,51 to 75,
NC(=O)Cn1cnc2nc(-c3ccccn3)nc(N3CCOCC3)c21 [drawing 2825],,,,,,,1 to 25,25 to 50,,25 to 50,,25 to 50,
Cc1cnc(-c2ccccn2)nc1NC(=O)COCc1ccncc1,,,,,,,51 to 75,51 to 75,,51 to 75,,51 to 75,
O=C(c1csc2c(O)nc(-c3ccccn3)nc12)N1CCN(c2ccccc2)CC1 [drawing 2680],,,,,,,76 to 100,51 to 75,,25 to 50,,51 to 75,IC50 [1]: 5 to 10 µM
O=C(c1csc2c(O)nc(-c3ccccn3)nc12)N(CCO)CCOCCO [drawing 2687],,,,,,,76 to 100,25 to 50,,51 to 75,,51 to 75,
O=C(c1ccccn1)N1CCCc2c(O)nc(-c3ccccn3)nc21 [drawing 2655],,,,,,,51 to 75,25 to 50,,25 to 50,,25 to 50,
O=C(c1csc2c(O)nc(-c3ccccn3)nc12)N1CCC(N2CCCC2=O)CC1 [drawing 2679],,,,,,,51 to 75,51 to 75,,51 to 75,,51 to 75,
COc1ccc(OCc2nc(CNCCc3nnc4n3CCC4)cs2)cc1 [drawing 2565],,,,,,,,,,,,,"inhibition at 20 µM ([1]; 20 μM, read-out: KRas G12D Q61H % Inh.): 51 to 75%; inhibition at 20 µM (KRas wild type; 20 μM, read-out: KRas wild type, % Inh.): 1 to 25%; inhibition at 20 µM (KRas G12C mutant; 20 μM, read-out: KRas G12C % Inh.): 25 to 50%; inhibition at 20 µM (KRas G12D mutant protein; 20 μM, read-out: KRas G12D % Inh.): 51 to 75%"
